Active and inactive are the calls of the source. No cut-off for these calls is given here.
Columns and labels:
SJRH30 [1] = experiment: Antiproliferative activity against human Rh30 cells assessed as inhibition of cell growth incubated for 144 hrs; format: functional, cell-based; conditions: SJRH30, 144 h
RD [2] = experiment: Antiproliferative activity against human RD cells assessed as inhibition of cell growth incubated for 144 hrs; format: functional, cell-based
RD [3] = experiment: Antiproliferative activity against human RD cells assessed as inhibition of cell growth incubated for 24 hrs; format: functional, cell-based
RD [4] = experiment: Antiproliferative activity against human RD cells assessed as inhibition of cell growth incubated for 72 hrs; format: functional, cell-based
SJRH30 [5] = experiment: Antiproliferative activity against human Rh30 cells assessed as inhibition of cell growth incubated for 72 hrs; format: functional, cell-based; conditions: SJRH30, 72 h
SJRH30 [6] = experiment: Induction of apoptosis in human Rh30 cells assessed as increase in caspase 3/7 level at 10 uM incubated for 24 hrs; format: functional, cell-based
SJRH30 [7] = experiment: Antiproliferative activity against human Rh30 cells assessed as reduction in live cells at 10 uM incubated for 24 hrs by calceinAM/propidium iodide staining based fluorescence microscopy; format: functional, cell-based
SJRH30 [8] = experiment: Antiproliferative activity against human Rh30 cells assessed as inhibition of cell growth incubated for 24 hrs; format: functional, cell-based; conditions: SJRH30, 24 h
LSD1/CoREST complex [9] = biological target: T1, LSD1/CoREST complex (Homo sapiens, UniProt O60341); experiment: Binding affinity to human LSD1/CoREST assessed as dissociation constant by competitive fluorescence polarization assay; format: protein-complex assay
RD [10] = experiment: Antiproliferative activity against human RD cells assessed as reduction in live cells at 10 uM incubated for 72 hrs by calceinAM/propidium iodide staining based fluorescence microscopy; format: functional, cell-based
LSD1/CoREST complex [11] = biological target: T1, LSD1/CoREST complex; experiment: Inhibition of human LSD1/CoREST using histone H3 peptide as substrate by fluorescence polarization assay; format: protein-complex assay
[12] = biological target: T2, N-lysine methyltransferase KMT5A (Homo sapiens) (UniProt Q9NQR1); experiment: Inhibition of SETD8 (unknown origin) using [3H]SAM and HeLa nucleosomes as substrates at 100 uM incubated for 1 hr relative to control
T2 sequence (whole entry): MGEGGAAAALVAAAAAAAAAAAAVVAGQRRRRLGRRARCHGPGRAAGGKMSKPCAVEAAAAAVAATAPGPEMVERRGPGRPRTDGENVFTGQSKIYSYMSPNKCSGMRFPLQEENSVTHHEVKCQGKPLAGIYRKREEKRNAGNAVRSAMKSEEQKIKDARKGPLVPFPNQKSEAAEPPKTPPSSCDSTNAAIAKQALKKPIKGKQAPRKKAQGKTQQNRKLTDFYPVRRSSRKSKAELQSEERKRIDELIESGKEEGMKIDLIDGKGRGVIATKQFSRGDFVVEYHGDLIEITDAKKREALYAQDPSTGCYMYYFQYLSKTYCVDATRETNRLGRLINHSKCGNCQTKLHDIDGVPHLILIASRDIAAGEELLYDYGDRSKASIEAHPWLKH

[13] = biological target: T3, N-lysine methyltransferase KMT5A (Homo sapiens, UniProt Q9NQR1); experiment: Inhibition of SETD8 (unknown origin) using [3H]SAM and HeLa nucleosomes as substrates incubated for 1 hr
T3 sequence (Q9NQR1 whole entry): T2 sequence (whole entry)

Kd (LSD1/CoREST complex [9]) | Ki (LSD1/CoREST complex [11]) | inhibition [12] | IC50 [13] | Structure (SMILES) | IC50 (SJRH30 [1]) | IC50 (RD [2]) | IC50 (RD [3]) | IC50 (RD [4]) | IC50 (SJRH30 [5]) | Activity (SJRH30 [6]) | Activity (SJRH30 [7]) | IC50 (SJRH30 [8]) | Activity (RD [10])
0.014 µM | 0.035 µM | – | – | Cc1ccc(-c2ncc(OC[C@@H]3CCNC3)cc2-c2ccc(C#N)cc2)cc1 | 10.3 µM | 10.2 µM | 12.3 µM | 11.4 µM | 10.7 µM | Active | Active | 9.93 µM | Active
– | – | 91.6% | 0.37 µM | Cc1ccc(NC2=CC(=O)c3sc(C)nc3C2=O)cc1 | – | – | – | – | – | – | – | – | –

Source: ChEMBL document CHEMBL5120862, “Novel non-covalent LSD1 inhibitors endowed with anticancer effects in leukemia and solid tumor cellular models” (Eur J Med Chem, 2022)
